Entries after “also recorded” stand apart in the source; their conditions may differ.
What was measured:
[1] = pH assessment and visual compatibility of first biocide with AMA-324 in polymer solution; type: physicochemical; conditions: for pH end: AMA-324 plus first biocide mixed 30 minutes, AMA-324 alone stirred 40 minutes; for pH after addition of first biocide: polymer solution with AMA-324 100 ppm plus first biocide 100 ppm (active), DBNPA 50 ppm; for Observations on adjusted pH solution: polymer solution with AMA-324 plus first biocide, after pH adjustment, visual appearance
Description: Seven standard polymer solutions were prepared by preparing a commercially-available polyacrylamide polymer using standard methods. The polymer was added to artificial seawater formulation (approximately 27° C., with the pH adjusted to 6.5 and buffered accordingly) and the solution was mixed utilizing a magnetic stirrer to obtain 200 mL of a 300 ppm (active) polymer solution. After mixing, the initial pH of each polymer solution was measured and recorded. The pH was measured using a calibrated bench top pH meter.
After the initial pH reading, 1 mL of the AMA-324 stock solution was added to 200 mL of the polymer solution to provide 100 ppm (active) of the biocide, and mixed for 10 minutes. The pH of the solution with the AMA-324 was then measured and recorded.
Following pH measurement of the polymer solutions containing AMA-324, 1 mL of a first biocide component stock solution (as described in Table 1) was added to each polymer mixture. The concentration of the biocide stock solutions were prepared to provide 100 ppm (active) in the polymer solution, except for DBNPA which was evaluated at 50 ppm (active). The polymer solutions with the AMA-324 and the first biocide components were mixed for 30 minutes, after which the pH was again measured.
Finally, one control experiment was performed with only the addition of AMA-324 to the polymer solution, stirred for 40 minutes with no other biocide addition.

SRB = experiment: Planktonic biocide efficacy, MPN enumeration, SRB; type: cell-based; conditions: FIG. 8 versus FIG. 14

Row | Compound | pH end [1] | pH after addition of first biocide [1] | Observations on adjusted pH solution [1] | Synergistic effect of dual biocide system with AMA-324 (SRB) | Observations on adjusted pH solution ([1]; listed as ADBAC Quat)
1 | N#CC(Br)(Br)C(N)=O [DBNPA, 2,2-dibromo-3-nitrilopropionamide] | 8.44 | 8.04 | some turbidity; also recorded: cloudy |  | 
2 | tetrakis(hydroxymethyl) phosphonium sulfate [THPS] | 7.13 | 6.8 | clear | synergistic effect | 
3 | C12-16-alkyl dimethyl benzyl ammonium chloride [ADBAC quat] | 9.18 | 9.57 | cloudy |  | some turbidity
4 | O=CCCCC=O [GLUT, Glutaraldehyde] | 9.12 | 9.29 | clear | synergistic effect | 

From patent US20140303045A1, “Biocidal Systems and Methods of Use” (Kemira Oyj, priority 2013, published 2014)
